How the values were obtained:
CDK4/Cyclin D1 = CDK4/Cyclin D1 (Homo sapiens, UniProt P11802); assay: inhibition of CDK4/Cyclin D1 kinase, TR-FRET; format: biochemical; settings: CDK4/Cyclin D1, 1 mM ATP, 0.15 μM Rb (Ser780)-biotin substrate, pH 7.0, 60 min preincubation, 120 min reaction, room temperature; read-out: CDK4D1 IC50
Description: (§1) Compounds disclosed herein were tested for inhibition of CDK4/Cyclin D1 or CDK6/Cyclin D3 kinase in an assay based on the time-resolved fluorescence-resonance energy transfer (TR-FRET) methodology. The assay was carried out in 384-well low volume black plates in a reaction mixture containing CDK4/Cyclin D1 or CDK6/Cyclin D3, 1 mM ATP, 0.15 μM Rb (Ser780)-biotin substrate and 0-10 μM compound in buffer containing 50 mM HEPES pH7.0, 0.02% NaN3, 0.01% BSA, 0.1 mM Orthovanadate, 50 mM MgCl2, 1 mM DTT and 0.005% Tween-20. The kinase was incubated with compound for 60 minutes at room temperature and the reaction was initiated by the addition of ATP and Rb (Ser780)-biotin substrate. After reaction at room temperature for 120 minutes, an equal volume of stop/detection solution was added according to the manufacture's instruction (Cisbio Bioassays). The stop/detection solution contained Streptavidin-XL665 and Anti-pRb (Ser780) mAb-Eu Cryptate in Detection buffer (Cisbio Bioassays). Plates were incubated at room temperature for 60 minutes, and the TR-FRET signals (ex337 nm, em665 nm/620 nm) were recorded on a PHERAstar FSX plate reader (BMG Labtech). The inhibition percentage of CDK4/Cyclin D1 or CDK6/Cyclin D3 kinase activity in presence of increasing concentrations of compounds was calculated based on the ratio of fluorescence at 665 nm to that at 620 nm. The IC50 for each compound was derived from fitting the data to the four-parameter logistic equation by Dotmatics.

CDK6/Cyclin D3 = CDK6/Cyclin D3 (Homo sapiens, UniProt Q00534); assay: inhibition of CDK6/Cyclin D3 kinase, TR-FRET; format: biochemical; settings: CDK6/Cyclin D3, 1 mM ATP, 0.15 μM Rb (Ser780)-biotin substrate, pH 7.0, 60 min preincubation, 120 min reaction, room temperature; read-out: CDK6D3 IC50
Description: as §1

Chain of CDK6/Cyclin D3 (Q00534 whole entry): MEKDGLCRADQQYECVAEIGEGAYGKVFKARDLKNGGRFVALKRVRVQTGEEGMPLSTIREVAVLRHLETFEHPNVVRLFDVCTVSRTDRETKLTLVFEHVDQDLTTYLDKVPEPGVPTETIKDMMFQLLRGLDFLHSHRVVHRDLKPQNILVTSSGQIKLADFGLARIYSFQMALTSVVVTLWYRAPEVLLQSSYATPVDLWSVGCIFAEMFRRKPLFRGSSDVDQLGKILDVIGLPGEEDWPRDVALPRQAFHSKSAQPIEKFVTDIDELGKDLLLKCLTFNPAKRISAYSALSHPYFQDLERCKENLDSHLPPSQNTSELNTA
Chain of CDK6/Cyclin D3 (P30281 whole entry partner): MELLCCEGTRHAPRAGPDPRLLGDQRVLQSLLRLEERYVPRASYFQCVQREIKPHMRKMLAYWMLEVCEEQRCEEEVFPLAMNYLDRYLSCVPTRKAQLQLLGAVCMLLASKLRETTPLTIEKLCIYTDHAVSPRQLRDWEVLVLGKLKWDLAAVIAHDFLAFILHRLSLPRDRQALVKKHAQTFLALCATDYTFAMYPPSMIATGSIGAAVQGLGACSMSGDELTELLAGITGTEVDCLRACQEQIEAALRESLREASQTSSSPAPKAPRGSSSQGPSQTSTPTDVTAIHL
Chain of CDK4/Cyclin D1 (P11802 whole entry): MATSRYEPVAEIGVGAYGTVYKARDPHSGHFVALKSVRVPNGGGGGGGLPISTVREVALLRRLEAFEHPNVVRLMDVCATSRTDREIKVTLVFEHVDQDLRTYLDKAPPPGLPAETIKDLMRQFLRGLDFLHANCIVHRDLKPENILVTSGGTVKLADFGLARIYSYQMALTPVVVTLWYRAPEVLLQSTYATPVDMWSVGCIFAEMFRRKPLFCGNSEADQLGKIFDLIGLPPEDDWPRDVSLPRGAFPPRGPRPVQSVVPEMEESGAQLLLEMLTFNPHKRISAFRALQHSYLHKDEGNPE
Chain of CDK4/Cyclin D1 (P24385 whole entry partner): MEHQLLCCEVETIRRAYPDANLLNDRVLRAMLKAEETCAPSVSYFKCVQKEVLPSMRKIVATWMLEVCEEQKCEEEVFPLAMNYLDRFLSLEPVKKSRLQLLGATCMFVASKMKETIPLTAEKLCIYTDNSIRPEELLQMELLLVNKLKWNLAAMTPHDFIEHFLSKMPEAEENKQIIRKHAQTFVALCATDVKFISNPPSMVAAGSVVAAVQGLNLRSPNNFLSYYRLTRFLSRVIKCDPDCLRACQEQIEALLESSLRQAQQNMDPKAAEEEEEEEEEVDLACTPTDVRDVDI

IC50 (CDK4/Cyclin D1) [nM]	IC50 (CDK6/Cyclin D3) [nM]	Structure (SMILES)
33	249	Cc1cc(C(C)(C)O)c2cc(-c3nc(N[C@@H]4CCOC[C@H]4O)ncc3F)cc(F)c2n1 [Example A3, (3S,4R)-4-((5-fluoro-4-(8-fluoro-4-(2-hydroxypropan-2-yl)-2-methylquinolin-6-yl)pyrimidin-2-yl)amino)tetrahydro-2H-pyran-3-ol]
122	688	COC(=O)c1ccnc2c(F)cc(-c3nc(N[C@@H]4CCOC[C@H]4O)ncc3F)cc12 [Example A1, methyl 8-fluoro-6-(5-fluoro-2-(((3S,4R)-3-hydroxytetrahydro-2H-pyran-4-yl)amino)pyrimidin-4-yl) quinoline-4-carboxylate]
171	1700	CC(C)(C)OC(=O)N1CCC(Nc2ncc(F)c(-c3cc(F)c4nccc(C(C)(C)O)c4c3)n2)CC1 [Example A4, tert-butyl 4-((5-fluoro-4-(8-fluoro-4-(2-hydroxypropan-2-yl)quinolin-6-yl)pyrimidin-2-yl)amino) piperidine-1-carboxylate]
12	84	CC(C)(O)c1ccnc2c(F)cc(-c3nc(N[C@@H]4CCOC[C@H]4O)ncc3F)cc12 [Example A2, (3S,4R)-4-((5-fluoro-4-(8-fluoro-4-(2-hydroxypropan-2-yl)quinolin-6-yl)pyrimidin-2-yl)amino)tetrahydro-2H-pyran-3-ol]
83	220	CC(C)(O)c1ccnc2c(F)cc(-c3nc(NC4CCNCC4)ncc3F)cc12 [Example A5, 2-(8-fluoro-6-(5-fluoro-2-(piperidin-4-ylamino)pyrimidin-4-yl)quinolin-4-yl) propan-2-ol]
97	2380	C[C@@H](N)c1ccnc2c(F)cc(-c3nc(N[C@@H]4CCOC[C@H]4O)ncc3F)cc12 [Example A7, (3S,4R)-4-((4-(4-((R)-1-aminoethyl)-8-fluoroquinolin-6-yl)-5-fluoropyrimidin-2-yl)amino)tetrahydro-2H-pyran-3-ol]
32	760	C[C@H](N)c1ccnc2c(F)cc(-c3nc(N[C@@H]4CCOC[C@H]4O)ncc3F)cc12 [Example A6, (3S,4R)-4-((4-(4-((S)-1-aminoethyl)-8-fluoroquinolin-6-yl)-5-fluoropyrimidin-2-yl)amino)tetrahydro-2H-pyran-3-ol]

Reference: US20260347346A1, “SUBSTITUTED 6-(PYRIMIDIN-4-YL)QUINOLINE COMPOUNDS AS CYCLIN DEPENDENT KINASE INHIBITORS” (BeOne Medicines I GmbH, priority 2022, published 2026)
